Counter-ions that a name gives are not always drawn.
Legend:
[1] = cited from earlier work
[2] = Beagle dog, oral, 500 mg, 1 dose
in vivo = conditions: male, beagle, dog, plasma, po, 500 mg

CN(C)C(=N)N=C(N)N [Metformin]
Time to complete absorption after administration ([1]; estimated): ≤ 6 h | Absorbed in the remaining part of (lower) intestine tract ([1]; in vivo): about 40% | Recovered in faeces ([1]; in vivo): up to 30%

CN(C)C(=N)N=C(N)N [Metformin (Matrix-free), metformin hydrochloride]
Ke (terminal elimination rate per hour) [2]: 0.157 h⁻¹ | AUC(0-inf) (in vivo): 81200 ng·h/mL | AUC(0-t) (in vivo): 77900 ng·h/mL | Cmax (in vivo): 12400 ng/mL | MRT (in vivo): 8.02 h | Tmax (in vivo): 1.3 h

— US20240293327A1, “MONOLITHIC TABLETS BASED ON CARBOXYL POLYMERIC COMPLEXES FOR CONTROLLED DRUG RELEASE” (MATRIPHARM INTERNATIONAL INC., priority 2014, published 2024)
